{"source": "patent US5677326A", "about": "“Indoline compound and 5-HT3 receptor antagonist containing the same as active ingredient” (Tokyo Tanabe Company Limited, priority 1993, dated 1997)", "key": {"stress-related diarrhea": {"system": "stress-related diarrhea", "details": "animal models; J. Pharmacol. Exp. Ther. 261, 297 (1992); cited from earlier work"}, "[1]": {"target": "T1, Intestinal 5-HT3 receptor (Cavia porcellus, UniProt O70212)", "T1 sequence (O70212 24-490 limits assumed)": "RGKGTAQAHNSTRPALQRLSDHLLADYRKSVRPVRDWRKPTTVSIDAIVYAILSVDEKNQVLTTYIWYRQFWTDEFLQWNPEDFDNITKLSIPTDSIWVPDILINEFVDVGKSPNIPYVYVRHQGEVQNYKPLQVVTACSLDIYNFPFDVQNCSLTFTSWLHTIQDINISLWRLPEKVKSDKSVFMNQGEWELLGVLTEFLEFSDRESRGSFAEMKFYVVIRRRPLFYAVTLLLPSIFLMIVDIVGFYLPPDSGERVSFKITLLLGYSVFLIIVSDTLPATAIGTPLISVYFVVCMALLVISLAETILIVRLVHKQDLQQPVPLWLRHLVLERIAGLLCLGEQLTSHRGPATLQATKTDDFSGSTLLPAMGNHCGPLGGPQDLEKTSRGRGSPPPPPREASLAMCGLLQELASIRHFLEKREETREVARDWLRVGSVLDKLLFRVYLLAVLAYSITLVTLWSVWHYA", "experiment": "Intestinal 5-HT3 receptor antagonism (isolated distal colon, 2-methylserotonin-induced contraction)", "type": "cell-based, Hartley guinea pigs", "details": "M (molar concentration of antagonist), isolated distal colon, 2-methylserotonin contraction", "quoted_text": "The test was conducted following the method of Miyata, et al. (The Journal of Pharmacology and Experimental Therapeutics Vol.259, No:1, 15 (1991)).\nMale Hartley guinea pigs with a body weight of 300-400 g were bled to death, the distal colon (3-10 cm from the anus) was isolated and suspended in a Magnus tube filled with Krebs solution aerated with a mixed gas (95% O2, 5% CO2), and subjected to a tensile load of 1 g. After constant contraction by cumulative addition of 2-methylserotonin (10^-6 -10^-4 M) was obtained, the test agent was added and the pA2 value of the test agent was calculated based on its inhibiting action on the initial value.\nThe value (pA2 value) is defined as the negative logarithm (-logM) of the molar concentration (M) of the antagonist required to reduce the effect of serotonin at a concentration of 2 times the 2-methylserotonin concentration (EC50) necessary to induce half of the maximum contraction reaction, to an effect induced by an EC50 of serotonin."}, "[2]": {"system": "5-HT3 receptors in the upper intestine", "experiment": "Antagonism against 5-HT-induced intestinal secretion (jejunal loop)", "type": "in vivo, wister rats", "details": "caudal vein, 15 min before serotonin", "description": "Antagonism against 5-HT-induced intestinal secretion:\nMale wister rats (8-11 weeks old) were anesthetized with urethane, and the abdomen was opened a polyethylene catheter was placed in the jejunum 5 cm distal to the duodenojejunal flexure and fixed by ligation. The second ligation was made at a distal point of 20 cm to create a jejunal loop. Two ml of physiological saline was injected into this loop and initiated continuous injection of physiological saline (0.1 ml/min) or 5-HT (3 μg/0.1 ml/kg/min, serotonin treated group) into the mesenteric artery through the mesenteric artery gastric branch, and after 30 minutes the jejunal loop was isolated, the residual fluid amount was measured, and the net fluid transfer per gram of tissue weight was calculated. The net fluid transfer was expressed as the fluid amount (weight) change in 30 minutes per jejunal tissue weight (g/30 min/g). A \"+\" was assigned when the fluid amount increased compared with 2 ml of physiological saline injected into the loop, and \"-\" when it decreased"}, "[3]": {"system": "restrained stress-induced diarrhea", "experiment": "Inhibiting effect on restrained stress-induced diarrhea (oral administration)", "type": "in vivo, Wistar rats", "details": "1 hour before stress", "description": "Inhibiting effect on restrained stress-induced diarrhea (oral administration): This test was conducted following the method of Miyata, et al. […] Nine-week-old male Wistar rats fasted overnight were placed in a stress cage and their feces produced in 5 hours were observed. Of 15 rats, 14 developed diarrhea. The inhibiting effect on diarrhea was measured by oral administration of the test compounds one hour prior to placement in the stress cage."}, "[4]": {"system": "restraint stress-induced diarrhea", "experiment": "Inhibiting effect on restraint stress-induced diarrhea (intraabdominal administration)", "type": "in vivo, Wistar rats", "details": "30 μg/kg, 30 min before stress", "description": "Inhibiting effect on restraint stress-induced diarrhea (intraabdominal administration): This test was conducted in the same manner as Test 3. Nine- to ten-week-oldmale Wistar rats fasted overnight were placed in a stress case and their feces produced in 5 hours were observed. Of 15 rats, 14 developed diarrhea. The inhibiting effect on diarrhea was measured by intraabdominal administration of a test compound 30 minutes prior to placement in the stress cage."}, "[5]": {"system": "duodenal extension reflex", "experiment": "Inhibiting effect on duodenal extension reflex", "type": "in vivo, Wistar rats", "details": "intravenous", "excerpt": "Inhibiting effect on duodenal extension reflex: Unfasted male Wistar rats with a body weight of 300-390 g were opened at the abdomen under urethane anesthesia, and ligated at 2 locations, the gastric pyloric region and 3-4 cm directly under it, to create a duodenal loop. […] The beaker was raised at once to create a internal loop pressure of 75 cm H2, and the depressor reflex and effect of the test agent administration were observed. […] The test agent was then administrated intravenously, and at 5, 15 and 25 minutes after administration an extension stimulus was applied, the depressor reflex was observed, and the differences were expressed as percentages with respect to the initial value, to give the inhibition rates."}, "[6]": {"target": "T2, 5-HT3 receptors in the heart (Rattus norvegicus, UniProt P35563)", "T2 construct": "from tissue; host or cells: living anesthetized male SD rats (in vivo)", "T2 sequence (P35563 24-483)": "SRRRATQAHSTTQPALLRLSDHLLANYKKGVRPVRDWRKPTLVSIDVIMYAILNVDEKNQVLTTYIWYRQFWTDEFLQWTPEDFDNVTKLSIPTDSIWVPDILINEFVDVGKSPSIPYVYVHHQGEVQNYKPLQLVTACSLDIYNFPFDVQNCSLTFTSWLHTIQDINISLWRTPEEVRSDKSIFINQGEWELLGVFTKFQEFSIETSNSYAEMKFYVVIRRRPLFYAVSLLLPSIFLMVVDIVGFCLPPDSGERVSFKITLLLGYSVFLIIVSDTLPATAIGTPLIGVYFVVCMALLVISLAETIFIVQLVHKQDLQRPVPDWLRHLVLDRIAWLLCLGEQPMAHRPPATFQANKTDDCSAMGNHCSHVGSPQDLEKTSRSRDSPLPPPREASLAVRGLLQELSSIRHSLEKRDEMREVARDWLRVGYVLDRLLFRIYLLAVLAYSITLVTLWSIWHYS", "experiment": "Antagonism against Von Bezold-Jarisch reflex (BJ reflex)", "type": "in vivo, SD rats", "details": "iv, 5 min before serotonin 30 μg/kg, read-out: ID50 (the source's name)", "description": "Antagonism against Von Bezold-Jarisch reflex (BJ reflex):\nThe pulse was determined by measuring the electrocardiogram R waves (secondary induction) with an instantaneous pulse rate meter."}, "[7]": {"system": "cisplatin-induced vomiting", "experiment": "Inhibiting effect on cisplatin-induced vomiting", "type": "in vivo, ferrets", "details": "oral, 1 hour before cisplatin; for No. of retching / No. of vomiting animals/No. of animals used / No. of vomitings: 6 hours", "excerpt": "Inhibiting effect on cisplatin-induced vomiting:\nVomiting was induced in ferrets by administration of cisplatin. The inhibiting effect on this vomiting was observed. […] The test agents were orally administered one hour prior to cisplatin administration. […]"}, "gastric emptying": {"system": "gastric emptying", "experiment": "Accelerating effect on gastric emptying (cisplatin-reduced)", "type": "in vivo, SD rats", "details": "oral, 30 min before cisplatin 10 mg/kg", "description": "Accelerating effect on gastric emptying\nSeven-week-old male SD rats which had been fasted for 24 hours were used. The effect on gastric emptying was studied in rats with reduced gastric emptying due to cisplatin. The rats were intragastrically administered the test feed (1.5% aqueous CMC solution containing 50 mg/100 ml phenol red) at 1.5 ml/rat, and after 15 minutes the stomachs were dissected, the residual amount of phenol red in the stomach was measured, in order to determine the gastric emptying in normal animals. A cisplatin-induced reduction in gastric emptying was measured by intraabdominal administration of cisplatin (10 mg/kg) 30 minutes prior to supplying the test feed. The test compound was also administered orally 30 minutes prior to the cisplatin administration to study the accelerating effect of the test compound on gastric emptying."}, "vomiting": {"system": "vomiting", "details": "The Japanese Journal of Pharmacology 57, 387-395 (1991); cited from earlier work"}}, "note": "Where a name gives a salt, the structure may show the parent alone.", "data": [{"smiles": "CN1C2CCCC1CC(NC(=O)c1nn(C)c3ccccc13)C2", "note": "(stereo not drawn) [Granisetron, N-(endo-9-methyl-9-azabicyclo [3,3,1]nona-3-yl)-l-methyl-indazol-3-carboxamide hydrochloride]", "values": [{"measurement": "suppression of stress-related diarrhea (in words)", "setting": "stress-related diarrhea", "result": "suppress stress-related diarrhea"}]}, {"smiles": "Cc1nccn1CC1CCc2c(c3ccccc3n2C)C1=O", "note": "(centres unmarked) [Ondansetron, 1,2,3,4-tetrahydro-9-methyl-3-[(2-methyl-1H-imidazol-1-yl)methyl]-4H-carbazol-4-one-hydrochloride dihydrate]", "values": [{"measurement": "suppression of stress-related diarrhea (in words)", "setting": "stress-related diarrhea", "result": "suppress stress-related diarrhea"}]}, {"smiles": "Cl.Cn1cc(C(=O)[C@@H]2CCc3nc[nH]c3C2)c2ccccc21", "note": "[YM-060, (R)-(-)-5-[(1-methylindol-3-yl)carbonyl]-4,5,6,7-tetrahydrobenzimidazole hydrochloride, reference compound]", "values": [{"measurement": "Kb", "setting": "[1]", "result": 4.5, "unit": "nM"}, {"measurement": "net fluid transfer in jejunal loop", "setting": "[2]; 1.0 μg/kg", "result": "-0.49 ± 0.06", "unit": "g/30 min/g tissue weight"}, {"measurement": "net fluid transfer in jejunal loop", "setting": "[2]; 10 μg/kg", "result": "-0.74 ± 0.09", "unit": "g/30 min/g tissue weight"}, {"measurement": "Inhibition rate", "setting": "[3]; 30 μg/kg", "result": 60, "unit": "%"}, {"measurement": "No. of animals with diarrhea/No. of animals used", "setting": "[3]; 30 μg/kg", "result": "4/10"}, {"measurement": "Inhibition rate", "setting": "[3]; 100 μg/kg", "result": 75, "unit": "%"}, {"measurement": "No. of animals with diarrhea/No. of animals used", "setting": "[3]; 100 μg/kg", "result": "2/8"}, {"measurement": "Inhibition rate", "setting": "[4]", "result": 50, "unit": "%"}, {"measurement": "No. of animals with diarrhea/No. of animals used", "setting": "[4]", "result": "7/14"}, {"measurement": "Inhibition rate, 5-min value", "setting": "[5]; 1 μg/kg", "result": -27.9, "unit": "%"}, {"measurement": "Inhibition rate, 15-min value", "setting": "[5]; 1 μg/kg", "result": -30.8, "unit": "%"}, {"measurement": "Inhibition rate, 25-min value", "setting": "[5]; 1 μg/kg", "result": -14.8, "unit": "%"}, {"measurement": "Inhibition rate, 5-min value", "setting": "[5]; 10 μg/kg", "result": 16.3, "unit": "%"}, {"measurement": "Inhibition rate, 15-min value", "setting": "[5]; 10 μg/kg", "result": 6.3, "unit": "%"}, {"measurement": "Inhibition rate, 25-min value", "setting": "[5]; 10 μg/kg", "result": 7.9, "unit": "%"}, {"measurement": "ED50", "setting": "[6]", "result": "8.6e-05", "unit": "µmol/kg"}, {"measurement": "Latency* (time to initial retching)", "setting": "[7]; 0.3 μg", "result": 127.0, "unit": "min"}, {"measurement": "Latency** (time to initial vomiting)", "setting": "[7]; 0.3 μg", "result": 134.0, "unit": "min"}, {"measurement": "No. of retching", "setting": "[7]; 0.3 μg", "result": 126.0}, {"measurement": "No. of vomiting animals/No. of animals used", "setting": "[7]; 0.3 μg", "result": "2/2"}, {"measurement": "No. of vomitings", "setting": "[7]; 0.3 μg", "result": 6.5}, {"measurement": "Latency* (time to initial retching)", "setting": "[7]; 1.0 μg", "result": "> 272.2", "unit": "min"}, {"measurement": "Latency** (time to initial vomiting)", "setting": "[7]; 1.0 μg", "result": "> 303.0", "unit": "min"}, {"measurement": "No. of retching", "setting": "[7]; 1.0 μg", "result": 41.6}, {"measurement": "No. of vomiting animals/No. of animals used", "setting": "[7]; 1.0 μg", "result": "3/5"}, {"measurement": "No. of vomitings", "setting": "[7]; 1.0 μg", "result": 1.2}, {"measurement": "Gastric evacuation", "setting": "gastric emptying; 0.3 μg/kg", "result": 51.8, "unit": "%"}, {"measurement": "Gastric evacuation", "setting": "gastric emptying; 1.0 μg/kg", "result": 74.2, "unit": "%"}, {"measurement": "suppression of stress-related diarrhea (in words)", "setting": "stress-related diarrhea", "result": "suppress stress-related diarrhea in animal models, with the effect of YM-060 being the strongest"}, {"measurement": "antiemetic effect (in words)", "setting": "vomiting", "result": "powerful antiemetic effect"}]}]}
